Experimental data: ChEMBL document CHEMBL4184197 (Bioorg Med Chem, 2018)

What was measured:
[1] = target: Gastrin/cholecystokinin type B receptor (Homo sapiens) (UniProt P32239); test: Binding affinity to recombinant human CCK2 at 10 uM after 60 mins by scintillation counting analysis relative to control
[2] = target: Prostaglandin E2 receptor EP4 subtype (Homo sapiens) (UniProt P35408); test: Binding affinity to recombinant human EP4 receptor at 10 uM after 120 mins by scintillation counting analysis relative to control
[3] = target: C-X-C chemokine receptor type 2 (Homo sapiens) (UniProt P25025); test: Binding affinity to recombinant human CXCR2 receptor at 10 uM after 60 mins by scintillation counting analysis relative to control
C-X-C chemokine receptor type 2 (Homo sapiens), sequence (P25025 whole entry): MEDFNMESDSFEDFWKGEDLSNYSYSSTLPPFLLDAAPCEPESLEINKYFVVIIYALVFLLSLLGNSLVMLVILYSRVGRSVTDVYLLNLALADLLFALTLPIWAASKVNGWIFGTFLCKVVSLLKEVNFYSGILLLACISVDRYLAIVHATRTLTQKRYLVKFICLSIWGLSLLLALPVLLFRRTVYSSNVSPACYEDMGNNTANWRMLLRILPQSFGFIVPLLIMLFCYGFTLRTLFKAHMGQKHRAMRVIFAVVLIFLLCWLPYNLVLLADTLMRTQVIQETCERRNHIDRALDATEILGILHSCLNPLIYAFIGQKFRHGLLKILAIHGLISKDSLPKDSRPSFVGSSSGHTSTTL

Homo sapiens [4] = species on record: Homo sapiens; test: Binding affinity to P2Y receptor (unknown origin) at 10 uM relative to control
[5] = target: MAO-B (amine oxidase [flavin-containing] B) (Homo sapiens, UniProt P27338); test: Binding affinity to recombinant human MAO-B at 10 uM after 60 mins by luminescence analysis relative to control; settings: read-out: Activity
MAO-B (amine oxidase [flavin-containing] B), sequence (P27338 whole entry): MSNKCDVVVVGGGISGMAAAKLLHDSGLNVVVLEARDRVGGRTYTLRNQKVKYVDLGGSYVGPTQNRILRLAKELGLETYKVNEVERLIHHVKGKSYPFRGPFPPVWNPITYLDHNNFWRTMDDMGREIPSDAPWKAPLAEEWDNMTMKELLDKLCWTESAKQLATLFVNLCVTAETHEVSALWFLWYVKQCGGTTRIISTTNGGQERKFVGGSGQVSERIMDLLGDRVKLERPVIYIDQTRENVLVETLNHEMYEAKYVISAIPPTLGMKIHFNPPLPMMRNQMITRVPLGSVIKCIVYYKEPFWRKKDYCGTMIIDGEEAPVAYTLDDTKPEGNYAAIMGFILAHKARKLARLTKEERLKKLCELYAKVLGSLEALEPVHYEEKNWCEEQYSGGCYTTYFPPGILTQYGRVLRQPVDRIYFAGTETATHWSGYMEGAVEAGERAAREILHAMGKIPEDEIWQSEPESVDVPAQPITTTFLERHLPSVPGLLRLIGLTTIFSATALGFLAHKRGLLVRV

[6] = target: D(1A) dopamine receptor (Homo sapiens) (UniProt P21728); test: Binding affinity to recombinant human dopamine receptor D1 at 10 uM after 60 mins by scintillation counting analysis relative to control
[7] = tested on: Voltage-gated potassium channel; test: Binding affinity to voltage-gated potassium channel (unknown origin) at 10 uM relative to control; assay type: protein assay; settings: human
[8] = target: Cholecystokinin receptor type A (Homo sapiens) (UniProt P32238); test: Binding affinity to recombinant human CCK1 at 10 uM after 60 mins by scintillation counting analysis relative to control
[9] = target: Beta-2 adrenergic receptor (Homo sapiens) (UniProt P07550); test: Binding affinity to recombinant human beta 2 adrenoceptor at 10 uM after 120 mins by scintillation counting analysis relative to control
[10] = target: Peroxisome proliferator-activated receptor gamma (Homo sapiens) (UniProt P37231); test: Binding affinity to recombinant human PPARgamma receptor at 10 uM after 120 mins by scintillation counting analysis relative to control
Peroxisome proliferator-activated receptor gamma (Homo sapiens), sequence (P37231 whole entry): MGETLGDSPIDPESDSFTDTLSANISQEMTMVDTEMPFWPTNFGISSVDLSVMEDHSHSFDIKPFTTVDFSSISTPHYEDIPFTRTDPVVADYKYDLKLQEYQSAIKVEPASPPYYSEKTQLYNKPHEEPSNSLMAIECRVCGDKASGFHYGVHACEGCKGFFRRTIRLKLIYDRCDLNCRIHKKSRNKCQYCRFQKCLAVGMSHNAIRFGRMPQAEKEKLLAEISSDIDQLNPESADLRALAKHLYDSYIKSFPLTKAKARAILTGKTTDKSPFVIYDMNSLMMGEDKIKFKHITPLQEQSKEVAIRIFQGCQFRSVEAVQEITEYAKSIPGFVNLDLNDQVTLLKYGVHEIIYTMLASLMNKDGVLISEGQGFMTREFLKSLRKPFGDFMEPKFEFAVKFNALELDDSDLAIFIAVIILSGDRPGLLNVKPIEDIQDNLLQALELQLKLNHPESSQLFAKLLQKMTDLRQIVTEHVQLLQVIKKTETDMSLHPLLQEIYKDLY

Rattus norvegicus [11] = species on record: Rattus norvegicus; test: Binding affinity to rat SKCa channel at 10 uM after 60 mins by scintillation counting analysis relative to control
Homo sapiens [12] = species on record: Homo sapiens; test: Binding affinity to phencyclidine receptor (unknown origin) at 10 uM relative to control
[13] = target: Galanin receptor type 2 (Homo sapiens) (UniProt O43603); test: Binding affinity to recombinant human GAL2 receptor at 10 uM after 120 mins by scintillation counting analysis relative to control
Galanin receptor type 2 (Homo sapiens), sequence (O43603 whole entry): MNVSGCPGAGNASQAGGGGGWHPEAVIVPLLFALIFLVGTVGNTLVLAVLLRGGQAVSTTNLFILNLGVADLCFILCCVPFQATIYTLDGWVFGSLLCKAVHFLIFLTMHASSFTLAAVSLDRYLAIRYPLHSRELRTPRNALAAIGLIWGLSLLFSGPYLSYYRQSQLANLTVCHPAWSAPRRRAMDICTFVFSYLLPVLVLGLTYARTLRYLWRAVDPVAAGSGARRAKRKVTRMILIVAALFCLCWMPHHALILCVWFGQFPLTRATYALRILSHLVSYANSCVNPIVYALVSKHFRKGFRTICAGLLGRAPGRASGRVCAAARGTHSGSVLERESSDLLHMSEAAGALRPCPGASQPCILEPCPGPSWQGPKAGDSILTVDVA

[14] = target: Prostaglandin G/H synthase 1 (Homo sapiens) (UniProt P23219); test: Binding affinity to recombinant human COX1 at 10 uM after 3 mins by fluorescence assay relative to control
[15] = target: Neuromedin-K receptor (Homo sapiens) (UniProt P29371); test: Binding affinity to recombinant human NK3 receptor at 10 uM after 120 mins by scintillation counting analysis relative to control
Salmonella typhimurium [16] = test: Mutagenicity in Salmonella typhimurium TA100 in presence of rat liver S9 fraction by Ames test; assay type: toxicity, organism-based; settings: salmonella enterica subsp. enterica serovar typhimurium
[17] = target: Melanocortin receptor 4 (Homo sapiens) (UniProt P32245); test: Binding affinity to recombinant human MC4 receptor at 10 uM after 120 mins by scintillation counting analysis relative to control
Melanocortin receptor 4 (Homo sapiens), sequence (P32245 whole entry): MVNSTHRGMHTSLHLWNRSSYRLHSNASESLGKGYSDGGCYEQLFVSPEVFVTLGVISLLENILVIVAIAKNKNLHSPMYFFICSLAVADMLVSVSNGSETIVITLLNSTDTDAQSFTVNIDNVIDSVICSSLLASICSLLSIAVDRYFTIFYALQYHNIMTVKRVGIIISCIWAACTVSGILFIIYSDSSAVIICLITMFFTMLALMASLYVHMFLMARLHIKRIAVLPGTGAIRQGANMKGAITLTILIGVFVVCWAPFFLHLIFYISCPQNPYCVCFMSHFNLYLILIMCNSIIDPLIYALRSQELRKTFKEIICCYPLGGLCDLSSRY

[18] = target: Muscarinic acetylcholine receptor M3 (Homo sapiens) (UniProt P20309); test: Binding affinity to recombinant human muscarinic M3 receptor at 10 uM after 60 mins by scintillation counting analysis relative to control
Muscarinic acetylcholine receptor M3 (Homo sapiens), sequence (P20309 whole entry, looked up): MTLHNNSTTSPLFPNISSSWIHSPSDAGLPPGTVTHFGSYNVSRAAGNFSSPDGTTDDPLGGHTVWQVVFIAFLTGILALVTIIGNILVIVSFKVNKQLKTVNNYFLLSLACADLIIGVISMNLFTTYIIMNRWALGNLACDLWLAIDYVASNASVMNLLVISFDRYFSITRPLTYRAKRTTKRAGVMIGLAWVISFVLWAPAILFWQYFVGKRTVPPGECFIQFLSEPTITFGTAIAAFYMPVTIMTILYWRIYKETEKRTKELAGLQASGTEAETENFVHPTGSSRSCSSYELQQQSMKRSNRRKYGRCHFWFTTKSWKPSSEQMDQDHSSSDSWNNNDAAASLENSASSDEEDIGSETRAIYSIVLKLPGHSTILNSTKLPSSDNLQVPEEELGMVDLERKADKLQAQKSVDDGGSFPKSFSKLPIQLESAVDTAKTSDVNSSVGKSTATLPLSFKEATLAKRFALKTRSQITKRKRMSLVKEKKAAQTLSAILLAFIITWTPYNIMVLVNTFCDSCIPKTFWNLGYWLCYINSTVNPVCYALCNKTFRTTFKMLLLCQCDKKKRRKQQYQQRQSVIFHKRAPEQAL

Homo sapiens [19] = species on record: Homo sapiens; test: Binding affinity to chloride channel (unknown origin) at 10 uM relative to control
[20] = target: Muscarinic acetylcholine receptor M5 (Homo sapiens) (UniProt P08912); test: Binding affinity to recombinant human muscarinic M5 receptor at 10 uM after 60 mins by scintillation counting analysis relative to control
[21] = target: Muscarinic acetylcholine receptor M1 (Homo sapiens) (UniProt P11229); test: Binding affinity to recombinant human muscarinic M1 receptor at 10 uM after 60 mins by scintillation counting analysis relative to control
Muscarinic acetylcholine receptor M1 (Homo sapiens), sequence (P11229 whole entry, the tested form may be a part): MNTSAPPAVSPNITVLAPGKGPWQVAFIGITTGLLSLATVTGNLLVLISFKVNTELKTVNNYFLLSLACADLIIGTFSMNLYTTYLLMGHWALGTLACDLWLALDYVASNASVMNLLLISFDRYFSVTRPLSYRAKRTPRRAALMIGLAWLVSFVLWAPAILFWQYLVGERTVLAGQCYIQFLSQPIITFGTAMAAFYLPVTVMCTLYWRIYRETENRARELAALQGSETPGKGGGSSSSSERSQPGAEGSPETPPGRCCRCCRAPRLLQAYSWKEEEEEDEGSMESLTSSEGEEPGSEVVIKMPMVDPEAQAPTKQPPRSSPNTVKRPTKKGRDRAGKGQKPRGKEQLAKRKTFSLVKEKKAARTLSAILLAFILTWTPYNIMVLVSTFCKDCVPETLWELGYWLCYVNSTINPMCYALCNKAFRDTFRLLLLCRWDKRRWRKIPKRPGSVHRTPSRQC

[22] = target: Disintegrin and metalloproteinase domain-containing protein 17 (Homo sapiens) (UniProt P78536); test: Binding affinity to recombinant human TACE at 10 uM after 5 mins by fluorescence assay relative to control
[23] = target: Secretory phospholipase A2 receptor (Homo sapiens) (UniProt Q13018); test: Binding affinity to recombinant human sPLA2 receptor at 10 uM after 20 mins by spectrophotometric analysis relative to control
Homo sapiens [24] = species on record: Homo sapiens; test: Binding affinity to elastase (unknown origin) at 10 uM relative to control
Rattus norvegicus [25] = species on record: Rattus norvegicus; test: Binding affinity to rat GABA receptor at 10 uM after 30 mins by scintillation counting analysis relative to control
Tryptase (Homo sapiens) = Tryptase (Homo sapiens) (UniProt Q9BZJ3+Q15661+Q9NRR2); test: Binding affinity to human tryptase at 10 uM after 8 mins by spectrophotometric analysis relative to control; assay type: protein assay
[26] = target: Endothelin receptor type B (Homo sapiens) (UniProt P24530); test: Binding affinity to recombinant human ETB receptor at 10 uM after 120 mins by scintillation counting analysis relative to control
Endothelin receptor type B (Homo sapiens), sequence (P24530 whole entry): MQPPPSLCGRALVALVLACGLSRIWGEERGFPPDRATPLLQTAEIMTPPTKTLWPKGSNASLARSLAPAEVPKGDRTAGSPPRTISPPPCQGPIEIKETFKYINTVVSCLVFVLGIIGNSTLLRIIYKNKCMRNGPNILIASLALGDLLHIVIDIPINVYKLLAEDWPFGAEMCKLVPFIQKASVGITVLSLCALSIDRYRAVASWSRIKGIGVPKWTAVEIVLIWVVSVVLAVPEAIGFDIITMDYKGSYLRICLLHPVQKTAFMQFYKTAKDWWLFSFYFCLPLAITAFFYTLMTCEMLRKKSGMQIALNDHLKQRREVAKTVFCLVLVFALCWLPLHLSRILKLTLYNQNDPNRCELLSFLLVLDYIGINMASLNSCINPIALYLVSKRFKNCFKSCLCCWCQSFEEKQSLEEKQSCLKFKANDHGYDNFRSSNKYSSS

Salmonella typhimurium [27] = test: Mutagenicity in Salmonella typhimurium TA98 in presence of rat liver S9 fraction by Ames test; assay type: toxicity, organism-based; settings: salmonella enterica subsp. enterica serovar typhimurium
Salmonella typhimurium [28] = test: Mutagenicity in Salmonella typhimurium TA1535 in absence of rat liver S9 fraction by Ames test; assay type: toxicity, organism-based; settings: salmonella enterica subsp. enterica serovar typhimurium
[29] = target: Matrix metalloproteinase-9 (Homo sapiens) (UniProt P14780); test: Binding affinity to human MMP9 at 10 uM after 90 mins by fluorescence assay relative to control
Matrix metalloproteinase-9 (Homo sapiens), sequence (P14780 whole entry): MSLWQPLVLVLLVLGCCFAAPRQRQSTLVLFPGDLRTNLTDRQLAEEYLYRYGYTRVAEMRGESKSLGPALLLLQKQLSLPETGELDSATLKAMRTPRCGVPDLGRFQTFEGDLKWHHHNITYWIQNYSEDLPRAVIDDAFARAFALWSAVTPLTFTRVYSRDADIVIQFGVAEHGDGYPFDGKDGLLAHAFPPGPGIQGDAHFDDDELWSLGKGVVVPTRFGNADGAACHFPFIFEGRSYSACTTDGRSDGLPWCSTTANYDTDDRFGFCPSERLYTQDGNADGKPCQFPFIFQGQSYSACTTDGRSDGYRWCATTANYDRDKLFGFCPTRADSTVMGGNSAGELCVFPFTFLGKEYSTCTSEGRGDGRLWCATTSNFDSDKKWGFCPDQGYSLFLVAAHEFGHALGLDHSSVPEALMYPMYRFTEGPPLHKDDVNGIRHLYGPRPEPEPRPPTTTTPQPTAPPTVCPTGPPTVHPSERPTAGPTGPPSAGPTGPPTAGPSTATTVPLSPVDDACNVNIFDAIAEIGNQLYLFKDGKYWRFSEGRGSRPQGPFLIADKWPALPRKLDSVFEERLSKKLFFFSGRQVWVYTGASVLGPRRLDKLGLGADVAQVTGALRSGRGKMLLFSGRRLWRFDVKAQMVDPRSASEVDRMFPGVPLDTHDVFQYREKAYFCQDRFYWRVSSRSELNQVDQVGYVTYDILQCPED

[30] = target: 5-hydroxytryptamine receptor 6 (Homo sapiens) (UniProt P50406); test: Binding affinity to recombinant human 5-HT6 receptor at 10 uM after 120 mins by scintillation counting analysis relative to control
[31] = target: Nociceptin receptor (Homo sapiens) (UniProt P41146); test: Binding affinity to recombinant human NOP receptor at 10 uM after 60 mins by scintillation counting analysis relative to control
[32] = target: Type-2 angiotensin II receptor (Homo sapiens) (UniProt P50052); test: Binding affinity to recombinant human AT2 receptor at 10 uM after 240 mins by scintillation counting analysis relative to control
[33] = target: M-phase inducer phosphatase 1 (Homo sapiens) (UniProt P30304); test: Binding affinity to recombinant human phosphatase CDC25A at 10 uM after 20 mins by fluorescence assay relative to control
[34] = target: 5-hydroxytryptamine receptor 5A (Homo sapiens) (UniProt P47898); test: Binding affinity to recombinant human 5-HT5A receptor at 10 uM after 120 mins by scintillation counting analysis relative to control
[35] = target: Beta-secretase 2 (Homo sapiens) (UniProt Q9Y5Z0); test: Binding affinity to BACE-2 (unknown origin) at 10 uM relative to control
[36] = target: Adenosine receptor A2a (Homo sapiens) (UniProt P29274); test: Binding affinity to recombinant human A2A receptor at 10 uM after 120 mins by scintillation counting analysis relative to control
Homo sapiens [37] = species on record: Homo sapiens; test: Binding affinity to sodium channel (unknown origin) at 10 uM relative to control

Gastrin/cholecystokinin type B receptor (Homo sapiens), sequence (P32239 whole entry): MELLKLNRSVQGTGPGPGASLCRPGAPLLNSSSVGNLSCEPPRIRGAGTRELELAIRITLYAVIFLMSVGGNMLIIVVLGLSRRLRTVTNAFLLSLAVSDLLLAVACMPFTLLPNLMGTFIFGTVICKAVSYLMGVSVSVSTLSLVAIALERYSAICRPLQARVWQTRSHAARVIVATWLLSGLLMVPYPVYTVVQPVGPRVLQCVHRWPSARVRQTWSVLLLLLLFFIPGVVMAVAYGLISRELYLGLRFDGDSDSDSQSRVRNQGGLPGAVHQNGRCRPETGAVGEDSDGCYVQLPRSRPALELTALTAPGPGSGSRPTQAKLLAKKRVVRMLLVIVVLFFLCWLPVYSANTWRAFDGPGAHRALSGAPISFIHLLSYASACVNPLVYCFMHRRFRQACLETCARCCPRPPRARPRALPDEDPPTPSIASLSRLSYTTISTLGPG

With `CCOc1c(Cl)cc(C(=O)Nc2ccc(C(=O)O)c(C)c2)cc1OC(C)C` as the molecule, how does the Activity [1] read?
Its Activity is < 25%.

And the Activity [2]?
The Activity was < 25%.

And the Activity [3]?
The Activity was < 25%.

And the Activity (Homo sapiens [4])?
Its Activity is < 25%.

What about the activity at 1 h, 10 µM [5] of the same molecule?
Its activity at 1 h, 10 µM is ≤ 25%.

And the Activity [6]?
Its Activity is < 25%.

What about the Activity [7] of the same molecule?
Its Activity is “<= 25%”.

And the Activity [8]?
The Activity was < 25%.

What about the Activity [9] of the same molecule?
Its Activity is < 25%.

What about the Activity [10] of the same molecule?
Its Activity is < 25%.

And the Activity (Rattus norvegicus [11])?
Its Activity is < 25%.

And the Activity (Homo sapiens [12])?
Its Activity is < 25%.

What about the Activity [13] of the same molecule?
Its Activity is < 25%.

What about the Activity [14] of the same molecule?
Its Activity is < 25%.

And the Activity [15]?
Its Activity is < 25%.

And the Activity (Salmonella typhimurium [16])?
Its Activity is “Non-Toxic”.

And the Activity [17]?
The Activity was < 25%.

What about the Activity [18] of the same molecule?
Its Activity is < 25%.

And the Activity (Homo sapiens [19])?
The Activity was < 25%.

What about the Activity [20] of the same molecule?
The Activity was < 25%.

What about the Activity [21] of the same molecule?
The Activity was < 25%.

What about the Activity [22] of the same molecule?
Its Activity is < 25%.

And the Activity [23]?
Its Activity is < 25%.

And the Activity (Homo sapiens [24])?
The Activity was < 25%.

What about the Activity (Rattus norvegicus [25]) of the same molecule?
Its Activity is < 25%.

And the Activity (Tryptase (Homo sapiens))?
Its Activity is < 25%.

What about the Activity [26] of the same molecule?
The Activity was < 25%.

What about the Activity (Salmonella typhimurium [27]) of the same molecule?
The Activity was “Non-Toxic”.

What about the Activity (Salmonella typhimurium [28]) of the same molecule?
Its Activity is “Non-Toxic”.

And the Activity [29]?
The Activity was < 25%.

What about the Activity [30] of the same molecule?
The Activity was < 25%.

What about the Activity [31] of the same molecule?
The Activity was < 25%.

And the Activity [32]?
Its Activity is < 25%.

And the Activity [33]?
The Activity was < 25%.

What about the Activity [34] of the same molecule?
Its Activity is < 25%.

And the Activity [35]?
The Activity was < 25%.

What about the Activity [36] of the same molecule?
The Activity was < 25%.

And the Activity (Homo sapiens [37])?
Its Activity is < 25%.
